The target of assay [1] is T1, α2A-AR (Homo sapiens, UniProt P08913).
T1 sequence (P08913 1-465): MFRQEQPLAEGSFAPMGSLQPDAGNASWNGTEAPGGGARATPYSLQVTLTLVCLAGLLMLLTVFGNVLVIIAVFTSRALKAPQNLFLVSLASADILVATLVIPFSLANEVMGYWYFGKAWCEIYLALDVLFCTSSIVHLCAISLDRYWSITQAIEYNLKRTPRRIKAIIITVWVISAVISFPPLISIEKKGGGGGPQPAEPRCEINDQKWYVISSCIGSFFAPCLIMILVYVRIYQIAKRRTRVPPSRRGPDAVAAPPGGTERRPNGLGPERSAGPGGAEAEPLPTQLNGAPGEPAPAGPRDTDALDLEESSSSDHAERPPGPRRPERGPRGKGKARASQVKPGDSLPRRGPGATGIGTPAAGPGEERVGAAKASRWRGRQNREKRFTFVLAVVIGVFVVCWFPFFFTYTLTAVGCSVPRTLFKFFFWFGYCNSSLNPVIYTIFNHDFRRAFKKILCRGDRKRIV
Briefly: TRUPATH BRET2 G-protein activation. It counts as cell-based. Particulars: agonist; Gi1, GoA, Gz. (In general: Bioluminescence resonance energy transfer reports proximity on the nanometre scale.)

In assay [2] the target is T2, kappa opioid receptor (κOR) (Homo sapiens, UniProt P41145). The experiment in a line: Gi-GloSensor cAMP assay. It counts as cell-based.
The target in assay [3] is T2, kappa opioid receptor (κOR). Briefly: Gi-GloSensor cAMP assay. It counts as cell-based. This is another data set of the same source. Background: cAMP levels reflect the balance of adenylyl cyclase and phosphodiesterase activity.
Assay [4] has the same target. Briefly: radioligand competition binding, 3H-U69593. For orientation: Displacement assays read how much labelled ligand stays bound in the presence of the test substance.
Assay [5] concerns the target T1, α2A-AR. The experiment in a line: radioligand competition binding. As to conditions: panel labelled α2-AR.
The target of assay [6] is T1, α2A-AR. Briefly: Gi-GloSensor cAMP assay. It counts as cell-based. As to conditions: read-out: potency (pEC50) (converted); full agonist; printed pEC50 of 7.47.

Regarding `Cc1ccc(O)c(C)c1NC1=NCCCS1` [3-hydroxy-xylazine], the pEC50 result on α2A-AR [1] is “Xylazine, its metabolites, as well as other relevant adrenergic agonists exhibited agonist activity at α2A-AR”; in assay [2] (agonist), 3-hydroxy-xylazine was as efficacious, though less potent, as xylazine and salvinorin A.

For `Cc1cc(O)cc(C)c1NC1=NCCCS1` [4-hydroxy-xylazine], the pEC50 entry at α2A-AR [1] is “Xylazine, its metabolites, as well as other relevant adrenergic agonists exhibited agonist activity at α2A-AR”; in assay [2] (partial agonist) it was 4-hydroxy-xylazine was less efficacious at κOR overall.

The Ki is a measure of affinity in units of concentration, obtained from inhibition or displacement. For the compound `Cc1cccc(C)c1NC1=NCCCS1` [xylazine], the EC50 was 1400 nM in assay [3] and 34 nM on α2A-AR [6]. The compound further had a Ki in assay [4] of 470 nM. For the same compound, at α2A-AR [5], the pKi entry is “Radioligand competitive binding assay confirms xylazine activity at κOR (A) and α2-AR (B)”.

The values above are taken from paper PMC11290297 (Addiction neuroscience, 2024).
